Assay results from patent EP4603105A1, “PHARMACEUTICAL COMPOSITION CONTAINING CYCLIC COMPOUND HAVING SELECTIVE KRAS INHIBITORY EFFECT AGAINST HRAS AND NRAS” (CHUGAI SEIYAKU KABUSHIKI KAISHA, priority 2022, dated 2024).
Where two headings read alike, the source gives them in different places.

Tests used:
[1] = system: human lung cancer strain NCI-H441; experiment: NCI-H441 cell proliferation inhibitory activity (CellTiter-Glo, 4 days); format: cell-based; conditions: read-out: NCl-H441 IC50
In short: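 Proliferation was scored by […] measured after the reagent was added to cultures kept at 37°C in 5% carbon dioxide.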

HRAS wild-type protein = HRAS wild-type protein (Homo sapiens, UniProt P01112); experiment: Binding to HRAS by surface plasmon resonance (SPR), KD and KD ratio to KRAS
In short: (§1)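 Compound binding is evaluated by SPR single-cycle kinetics, with concentrations added intermittently from low to high for 75 s each. Target surfaces carry GDP-loaded biotinylated Avi-RAS at about 100–300 RU, regenerated after each cycle; temperature 30°C. A 1:1 binding model gives KD.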

[2] = biological target: GDP-bound NRAS wild-type protein (Homo sapiens, UniProt P01111); experiment: Binding to NRAS by surface plasmon resonance (SPR), KD and KD ratio to KRAS
In short: as §1

[3] = biological target: GDP-bound KRAS wild-type protein (Homo sapiens, UniProt P01116); experiment: Binding to KRAS by surface plasmon resonance (SPR), dissociation constant KD
In short: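 Recombinant RAS proteins bearing a biotinylated Avi tag and loaded with GDP served as the captured ligand, recaptured fresh every cycle. Binding responses were referenced to an uncoated surface and a buffer-only blank cycle. Dissociation constants were obtained by 1:1 model fitting at 30°C.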

[4] = ratio of KD for HRAS wild-type protein to KD for KRAS
[5] = ratio of KD for GDP-bound NRAS wild-type protein to KD for KRAS

Chain of HRAS wild-type protein (P01112 whole entry): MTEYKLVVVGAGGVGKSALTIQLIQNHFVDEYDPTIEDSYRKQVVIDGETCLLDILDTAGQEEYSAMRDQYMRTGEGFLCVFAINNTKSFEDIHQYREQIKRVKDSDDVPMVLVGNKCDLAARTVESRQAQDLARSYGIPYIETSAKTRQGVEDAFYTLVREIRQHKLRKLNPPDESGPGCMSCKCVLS
Chain of GDP-bound NRAS wild-type protein (P01111 whole entry): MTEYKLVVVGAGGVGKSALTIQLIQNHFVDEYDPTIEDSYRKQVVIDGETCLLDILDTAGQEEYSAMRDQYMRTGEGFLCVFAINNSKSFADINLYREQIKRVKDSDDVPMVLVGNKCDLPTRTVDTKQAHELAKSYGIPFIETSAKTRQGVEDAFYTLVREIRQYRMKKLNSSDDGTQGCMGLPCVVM
Chain of GDP-bound KRAS wild-type protein (P01116 1-188 isoform P01116-2): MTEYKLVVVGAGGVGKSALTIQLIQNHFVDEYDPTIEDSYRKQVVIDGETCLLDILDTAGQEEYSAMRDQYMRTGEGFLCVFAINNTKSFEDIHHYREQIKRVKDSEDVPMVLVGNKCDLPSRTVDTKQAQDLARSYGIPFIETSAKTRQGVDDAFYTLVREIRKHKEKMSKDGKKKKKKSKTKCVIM

SMILES	IC50 ([1]; NCI-H441 cells, 4 days) [nM]	Kd ([3]; Single Cycle Kinetics) [nM]	Kd ([3]; 1:1 binding model) [nM]	IC50 ([1]; 50% proliferation inhibitory concentration, four days) [nM]	Kd ([3]; Single Cycle Kinetics, 1:1 binding model) [nM]	HRAS /KRAS (HRAS wild-type protein; [4])	NRAS /KRAS [2, 5]	HRAS /KRAS (HRAS wild-type protein; ratio of KD with respect to HRAS wild-type protein to KD with respect to KRAS)	NRAS /KRAS ([2]; ratio of KD with respect to GDP-bound NRAS wild-type protein to KD with respect to KRAS)
CCC[C@H]1C(=O)N[C@@H]([C@@H](C)CC)C(=O)N(C)CC(=O)N(C)[C@H]2C/C=C\CCN(C2=O)[C@@H](Cc2ccc(C)cc2)C(=O)N(C)CC(=O)N[C@@H](CCc2cc(F)c(C(F)(F)F)c(F)c2)C(=O)N2CC3(CC3)C[C@H]2C(=O)N(C)C2(CCC2)C(=O)N(C)[C@@H]([C@@H](C)CC)C(=O)N(C)[C@H](C(=O)N(C)C)CC(=O)N1C [PP3331]	7	0.1	–	–	–	A (a compound having 10 or more and less than 20 is denoted as A)	A (a compound having 10 or more and less than 20 is denoted as A)	–	–
CCCO[C@@H]1C[C@H]2C(=O)NC3(CC(C)(C)C3)C(=O)N(C)[C@@H](C3CCCC3)C(=O)N(C)[C@H](C(=O)N(C)CC)CC(=O)N[C@@H](COCC)C(=O)N[C@@H]([C@@H](C)CC)C(=O)N3CCC[C@H]3C(=O)N(C)[C@H]3C/C=C\CCN(C3=O)[C@@H](Cc3ccc(C)cc3)C(=O)N(C)CC(=O)N[C@@H](CCc3ccc(C(F)(F)F)c(OC)c3)C(=O)N2C1 [PP3439]	148	1.7	–	–	–	A (a compound having 10 or more and less than 20 is denoted as A)	A (a compound having 10 or more and less than 20 is denoted as A)	–	–
CCOC[C@H]1C(=O)N[C@@H]([C@@H](C)CC)C(=O)N(C)CC(=O)N(C)[C@H]2C/C=C\CCN(C2=O)[C@@H](Cc2ccc(C(F)(F)F)cc2)C(=O)N(C)CC(=O)N[C@@H](CCc2ccc(Cl)c(Cl)c2)C(=O)N2C[C@H](OCC)C[C@H]2C(=O)NC2(CC(C)(C)C2)C(=O)N(C)[C@@H](CC2CCC2)C(=O)N(C)[C@H](C(=O)N(C)C)CC(=O)N1C [PP2767]	62.6	–	0.49	–	–	A (a compound having 10 or more and less than 20 is denoted as A)	A (a compound having 10 or more and less than 20 is denoted as A)	–	–
CCOC[C@H]1C(=O)N[C@@H]([C@@H](C)CC)C(=O)N(C2CC2)CC(=O)N(C)[C@H]2C/C=C\CCN(C2=O)[C@@H](Cc2ccc(C)cc2)C(=O)N(C)CC(=O)N[C@@H](CCc2cc(F)c(C(F)(F)F)c(F)c2)C(=O)N2C[C@H](OCC)C[C@H]2C(=O)NC2(CC(C)(C)C2)C(=O)N(C)[C@@H](CC(C)(C)C)C(=O)N(C)[C@H](C(=O)N(C)C)CC(=O)N1C [PP2720]	7.7	–	0.35	–	–	A (a compound having 10 or more and less than 20 is denoted as A)	A (a compound having 10 or more and less than 20 is denoted as A)	–	–

Continued, in another order:

IC50 ([1]; NCI-H441 cells, 4 days) [nM]	Kd ([3]; Single Cycle Kinetics) [nM]	Kd ([3]; 1:1 binding model) [nM]	IC50 ([1]; 50% proliferation inhibitory concentration, four days) [nM]	Kd ([3]; Single Cycle Kinetics, 1:1 binding model) [nM]	SMILES	HRAS /KRAS (HRAS wild-type protein; [4])	NRAS /KRAS [2, 5]	HRAS /KRAS (HRAS wild-type protein; ratio of KD with respect to HRAS wild-type protein to KD with respect to KRAS)	NRAS /KRAS ([2]; ratio of KD with respect to GDP-bound NRAS wild-type protein to KD with respect to KRAS)
11.2	0.17	–	–	–	CCC[C@H]1C(=O)N[C@@H](C2CCCC2)C(=O)N(C)CC(=O)N(C)[C@H]2C/C=C\CCN(C2=O)[C@@H](Cc2ccc(C)cc2)C(=O)N(C)CC(=O)N[C@@H](CCc2ccc(C(F)(F)F)c(OC)c2)C(=O)N2CC3(CC3)C[C@H]2C(=O)N(C)C2(CCC2)C(=O)N(C)[C@@H](C(CC)CC)C(=O)N(C)[C@H](C(=O)N(C)C)CC(=O)N1C [PP3316]	B (a compound having 3 or more and less than 10 is denoted as B)	A (a compound having 10 or more and less than 20 is denoted as A)	–	–
–	–	–	57.5	0.18	CCO[C@@H]1C[C@H]2C(=O)NC3(CCC3)C(=O)N(C)[C@@H](C3CCCC3)C(=O)N(C)[C@H](C(=O)N(C)C)CC(=O)N(C)[C@@H](Cc3ccc(Cl)c(Cl)c3)C(=O)N[C@@H]([C@@H](C)CC)C(=O)N(C)CC(=O)N(C)[C@H]3CCCCCN(C3=O)[C@@H](Cc3ccc(F)cc3)C(=O)N(C)CC(=O)N[C@@H](CCc3cc(F)c(C(F)(F)F)c(F)c3)C(=O)N2C1 [PP1158]	–	–	B (a compound having 3 or more and less than 10 is denoted as B)	B (a compound having 3 or more and less than 10 is denoted as B)
